In ChEMBL document CHEMBL1147270, “Discorhabdins S, T, and U, new cytotoxic pyrroloiminoquinones from a deep-water Caribbean sponge of the genus Batzella” (J Nat Prod, 2003):
pIC50: −log10 of the molar value.

Experiments:
Assay type in all cases: functional, cell-based
P388 = test: Cytotoxicity against mouse P388 cells after 48 hrs by MTT assay; conditions: P388, 48 h
A549 = test: Cytotoxicity against human A549 cells after 96 hrs by MTT assay; conditions: A549, 96 h
PANC-1 = test: Cytotoxicity against human PANC1 cells after 96 hrs by MTT assay; conditions: PANC-1, 96 h

| SMILES | pIC50 (P388) | pIC50 (A549) | pIC50 (PANC-1) |
| --- | --- | --- | --- |
| CSC1=CC(=O)C(Br)=C[C@]12CCNC1=C2c2nccc3cn(C)c(c23)C1=O [DISCORHABDIN S] | 5.51 | < 5.30 | 5.59 |
| CSC1=CC(=O)C(Br)=C[C@]12C=CNC1=C2c2nccc3cn(C)c(c23)C1=O [DISCORHABDIN T] | < 5.30 | < 5.30 | 6.15 |
| CSC1=CC(=O)C(Br)=C[C@]12C=CNC1=C2C2=NCCc3cn(C)c(c32)C1=O [DISCORHABDIN U] | 6.77 | 6.77 | 7.16 |
